We go through 17 compounds from publication PMC4006925, “Squalene Synthase As a Target for Chagas Disease Therapeutics” (PLoS Pathogens, 2014).

Each structure is given as a SMILES string. Where two headings read alike, the source gives them in different places. Where only a bound is given, the exact number is not on record here.

Assay [1] concerns the target T1, HsSQS (Homo sapiens, UniProt P37268).
T1 construct: His-tag; made in house
T1 sequence (P37268 1-417): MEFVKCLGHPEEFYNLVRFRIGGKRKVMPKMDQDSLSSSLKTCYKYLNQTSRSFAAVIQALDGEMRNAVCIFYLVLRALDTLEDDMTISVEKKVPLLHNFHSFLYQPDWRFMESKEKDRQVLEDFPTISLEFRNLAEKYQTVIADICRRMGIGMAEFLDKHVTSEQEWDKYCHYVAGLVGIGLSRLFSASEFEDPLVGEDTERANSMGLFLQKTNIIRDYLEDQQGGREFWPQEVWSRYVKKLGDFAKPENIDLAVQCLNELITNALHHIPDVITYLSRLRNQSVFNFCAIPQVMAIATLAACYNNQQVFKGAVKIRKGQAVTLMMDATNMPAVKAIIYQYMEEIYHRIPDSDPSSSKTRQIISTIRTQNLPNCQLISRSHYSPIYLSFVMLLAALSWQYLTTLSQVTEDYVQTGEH
The experiment in a line: Human squalene synthase inhibition. It is filed as biochemical. How it is done:
(§1) Initial SQS enzyme inhibition assays were carried out, in duplicate, in 96-well plates, with a total of 200 µL of reaction mixture in each well. Reactions were monitored by using a continuous spectrophotometric assay for phosphate releasing enzymes. […] The compounds investigated were pre-incubated with 2 µg of SQS for 30 min at 20°C. The IC50 values were obtained by fitting the inhibition data to a normal dose–response curve, using GraphPad PRISM, version 4.0, software for Windows (GraphPad Software Inc., San Diego, CA, www.graphpad.com). We then verified the results by using a radioactivity assay using ^3H-labelled FPP as substrate. […] The enzymes were incubated with inhibitor for 10 minutes before addition of the substrates. The reaction was allowed to continue at 37°C for 15 minutes and then terminated with 50 µL of 0.1 M NaOH/methanol. The product was extracted with 500 µL of hexanes and 300 µL of the organic layer was measured by scintillation counting.

Another assay deals with T. cruzi amastigotes. The assay can be described thus: T. cruzi amastigote cell growth inhibition in Vero cells. It is filed as cell-based, Trypanosoma cruzi. Conditions: means ± SD from 2 or 3 independent experiments, day 3 post-infection. How it is done: Gamma-irradiated (2,000 Rads) Vero cells (3.4×10^4 cells/well) were seeded in 96 well plates (black, clear bottom plates from Greiner Bio-One) in 100 µL RPMI media (Sigma) with 10% FBS. Plates were incubated overnight at 35°C and 7% CO2. […] After infection, cells were washed once with Hanks solution (150 µL/well) to eliminate any extracellular parasites, and compounds were added in serial dilutions in RPMI media in 150 µL volumes. Each dilution was tested in quadruplicate. Each plate also contained controls with host cells and no parasites (for a background check), and controls with parasites and no drugs (positive control). […] For each set of experiments, benznidazole was used as a positive control. After drug addition, plates were incubated at 35°C and 7% CO2. At day 3 post-infection, plates were assayed for fluorescence and IC50 values were determined by non-linear regression analysis using SigmaPlot.

A further assay addresses TcSQS (Trypanosoma cruzi, UniProt Q4CWB4). The assay can be described thus: biochemical. It is filed as biochemical. How it is done:
as §1

Another assay has as its system Vero cells. The assay can be described thus: Vero (host) cell proliferation, alamarBlue. It is filed as cell-based. Conditions: read-out: IC50 Vero cells (host cell growth). How it is done:
Vero cells (1.7×10^4 cells/well) were seeded in 96 well plates (black, clear bottom from Greiner Bio-One Cat#655090) in 100 µL RPMI media (Sigma Cat# R-4130) with 10% FBS. Plates were tested as described by Recher et al.
A general note: The colour change of resazurin is a common sign of viable cells or microbes.

The target of a further assay is T2, TcFPPS (Trypanosoma cruzi, UniProt Q95WL3).
T2 sequence (Q95WL3 1-362): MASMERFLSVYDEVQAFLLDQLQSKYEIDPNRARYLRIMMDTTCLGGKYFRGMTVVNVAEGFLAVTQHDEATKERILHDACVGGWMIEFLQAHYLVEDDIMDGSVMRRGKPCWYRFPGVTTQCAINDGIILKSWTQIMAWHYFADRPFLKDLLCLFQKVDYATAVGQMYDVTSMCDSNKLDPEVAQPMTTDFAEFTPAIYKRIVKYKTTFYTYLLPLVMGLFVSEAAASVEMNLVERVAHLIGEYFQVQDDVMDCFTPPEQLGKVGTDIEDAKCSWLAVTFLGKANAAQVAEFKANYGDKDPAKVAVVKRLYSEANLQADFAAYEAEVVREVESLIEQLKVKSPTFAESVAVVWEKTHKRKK
The experiment in a line: T. cruzi FPPS inhibition. It is filed as biochemical. How it is done: For FPPS inhibition we used the methods described previously. The condensation of geranyl diphosphate (100 µM) and isopentenyl diphosphate (100 µM) was monitored at room temperature by using a continuous spectrophotometric assay for phosphate releasing enzymes. The reaction buffer contained 50 mM Tris-HCl, pH 7.4, 1 mM MgCl2, and 0.01% Triton X100. The compounds investigated were pre-incubated with enzyme for 30 min at room temperature. The IC50 values were obtained from fitting dose-response curve using Prism 4.0 (GraphPad Software, Inc., La Jolla, CA, www.graphpad.com).

Another assay deals with LmSQS. Also noted: method as in PMID 18765694. The conditions noted are these: cited from earlier work.
The target of assay [2] is T1, HsSQS. Also noted: method as in PMID 1464749. Conditions: cited from earlier work.

TcSQS, sequence (Q4CWB4 entry or part of it): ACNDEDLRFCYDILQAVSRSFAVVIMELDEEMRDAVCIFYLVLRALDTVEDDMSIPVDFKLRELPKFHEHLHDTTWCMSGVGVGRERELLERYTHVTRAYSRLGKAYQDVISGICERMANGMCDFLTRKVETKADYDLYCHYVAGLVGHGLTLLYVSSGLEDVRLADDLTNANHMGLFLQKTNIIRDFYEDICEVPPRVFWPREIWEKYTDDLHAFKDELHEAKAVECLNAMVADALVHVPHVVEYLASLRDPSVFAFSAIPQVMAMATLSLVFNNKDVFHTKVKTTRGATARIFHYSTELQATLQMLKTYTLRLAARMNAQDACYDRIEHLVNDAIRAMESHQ

As to `CCCCCCCCCCCC[n+]1ccn(CC(P(=O)([O-])O)P(=O)(O)O)c1` (stereo not drawn) [BPH-703], the 50% inhibitory concentration (IC50) at HsSQS [1] is 0.14 µM; with T. cruzi amastigotes, 1.1 ± 0.4 µM; on TcSQS it was 0.052 µM; with Vero cells (in mM) it was around 1 mM; against TcFPPS, 0.9 µM.

`CCCCCCCCCCCCCC[n+]1ccn(CC(P(=O)([O-])O)P(=O)(O)O)c1` (stereo not drawn) [BPH-1219]: the IC50 at HsSQS [1] was 0.29 µM; in the assay on T. cruzi amastigotes, 0.8 ± 0.3 µM; against TcSQS, 0.12 µM; with Vero cells (in mM), around 1 mM; against TcFPPS, above 5 µM.

On to `CCCCCCCC[n+]1ccn(CC(O)(P(=O)([O-])O)P(=O)(O)O)c1` (stereo not drawn) [BPH-1222], for which the IC50 on HsSQS [1] came out at 0.27 µM; with T. cruzi amastigotes, 9.3 ± 1.8 µM; against TcSQS, 0.11 µM; in the assay with Vero cells, 0.05 ± 0.0014 mM; at TcFPPS, 0.15 µM.

In the case of `CCCCCCCCCCC[n+]1ccn(CC(O)(P(=O)([O-])O)P(=O)(O)O)c1` (stereo not drawn) [BPH-1236], the IC50 came out at 0.11 µM against HsSQS [1]; 6.4 ± 1.1 µM with T. cruzi amastigotes; 0.03 µM on TcSQS; 0.46 ± 0.25 mM with Vero cells; 0.55 µM against TcFPPS.

Consider `CCCCCCCCC[n+]1ccn(CC(O)(P(=O)([O-])O)P(=O)(O)O)c1` (stereo not drawn) [BPH-1238], for which the IC50 against HsSQS [1] is 0.075 µM; in the assay with T. cruzi amastigotes it was 7 ± 1 µM; against TcSQS it was 0.021 µM; with Vero cells, 0.19 ± 0.04 mM; on TcFPPS it was 0.22 µM.

As to `CCCCCCCCCCCC[n+]1ccn(CC(O)(P(=O)([O-])O)P(=O)(O)O)c1` (stereo not drawn) [BPH-1269], the IC50 against HsSQS [1] was 0.13 µM; in the assay on T. cruzi amastigotes, 3 ± 0.02 µM; against TcSQS it was 0.046 µM; with Vero cells, above 0.125 mM; against TcFPPS, 0.74 µM.

On to `CCCCCCCCCCCCC[n+]1ccn(CC(O)(P(=O)([O-])O)P(=O)(O)O)c1` (stereo not drawn) [BPH-1322], for which the 50% inhibitory concentration (IC50) against HsSQS [1] amounted to 0.18 µM; in the assay on T. cruzi amastigotes, 1.2 ± 0.3 µM; against TcSQS it was 0.064 µM; in the assay on Vero cells, 0.1 ± 0.04 mM; on TcFPPS it was 1.07 µM.

As to `CCCCCCCCCCCCCCCn1cc[n+](CC(O)(P(=O)([O-])O)P(=O)(O)O)c1` (stereo not drawn) [BPH-1325], the half-inhibitory concentration (IC50) on HsSQS [1] is 0.27 µM; in the assay on T. cruzi amastigotes (Trypanosoma cruzi, Vero, 72 h) it was 3 ± 1 µM; against TcSQS, 0.1 µM; in the assay with Vero cells (Chlorocebus sabaeus, Vero) it was 0.065 ± 0.018 mM; on TcFPPS, above 5 µM.

Regarding `CCCCCCCCC[n+]1ccn(CC(P(=O)([O-])O)P(=O)(O)O)c1` (stereo not drawn) [BPH-1327], the IC50 against HsSQS [1] is 0.1 µM; in the assay with T. cruzi amastigotes, 10 ± 2 µM; against TcSQS, 0.016 µM; with Vero cells (in mM) it was around 1 mM; against TcFPPS, 0.085 µM.

For `CCCCCCCCCCC[n+]1ccn(CC(P(=O)([O-])O)P(=O)(O)O)c1` (stereo not drawn) [BPH-1328], the IC50 on HsSQS [1] was 0.11 µM; in the assay with T. cruzi amastigotes, 4 ± 1.3 µM; at TcSQS, 0.01 µM; with Vero cells (in mM), around 1 mM; against TcFPPS it was 0.39 µM.

Take `CCCCCCCCCCCCC[n+]1ccn(CC(P(=O)([O-])O)P(=O)(O)O)c1` (stereo not drawn) [BPH-1329]: the IC50 is 0.22 µM against HsSQS [1]; 1.1 ± 0.1 µM in the assay with T. cruzi amastigotes; 0.058 µM at TcSQS; around 1 mM with Vero cells (in mM); 0.91 µM on TcFPPS.

In the case of `CCCCCCCCCCCCCC[n+]1ccn(CC(O)(P(=O)([O-])O)P(=O)(O)O)c1` (stereo not drawn) [BPH-1338], the IC50 against HsSQS [1] is 0.24 µM; with T. cruzi amastigotes it was 1.2 ± 0.1 µM; on TcSQS it was 0.12 µM; in the assay with Vero cells, 0.051 ± 0.01 mM; on TcFPPS, above 5 µM.

For `CCCCCCCCCCCCCCCn1cc[n+](CC(P(=O)([O-])O)P(=O)(O)O)c1` (stereo not drawn) [BPH-1344], the IC50 against HsSQS [1] is 0.26 µM; with T. cruzi amastigotes (Trypanosoma cruzi, Vero, 72 h), 1 ± 0.1 µM; on TcSQS it was 0.14 µM; in the assay on Vero cells (Chlorocebus sabaeus, Vero), around 1 mM; at TcFPPS it was above 5 µM.

`CO[C@H]1CN(c2ccc(C#C[C@@]3(O)CN4CCC3CC4)c(Cc3ccccc3)n2)C[C@H]1O` [E5700]: in the assay with LmSQS, the “inhibition of LmSQS” value was “nanomolar/sub-nanomolar range”.

On to `COCCCOc1ccc(C#C[C@@]2(O)CN3CCC2CC3)c(Cc2ccccc2)n1` [ER119884], for which the “inhibition of LmSQS” value in the assay with LmSQS is reported as “nanomolar/sub-nanomolar range”.

Regarding `CCCCCN(C)CCC(O)(P(=O)(O)O)P(=O)(O)O` [ibandronate], the “K i values, human SQS” value on HsSQS [2] is reported as “low nM”.

Consider `O=P(O)(O)C(NC1CCCCCC1)P(=O)(O)O` [incadronate], for which the “K i values, human SQS” value on HsSQS [2] is given as “low nM”.

As usually defined, the IC50 is the concentration at which inhibition is half-maximal.
